Data from US7439077B2, “Coumarin analog compounds for safer anticoagulant treatment” (New Century Pharmaceuticals, Inc., priority 2002, dated 2008).
Values joined by “and” are separate entries in the source; they are usually repeats but may differ in a detail not shown here. Equal entries are not always repeated. Where two headings read alike, the source gives them in different places.

Legend:
HSA = HSA (Homo sapiens, UniProt P02768); assay: BIACORE binding to HSA; conditions: Protein: HSA; for Binding Sites: number of binding sites
Sequence of HSA (P02768 25-609): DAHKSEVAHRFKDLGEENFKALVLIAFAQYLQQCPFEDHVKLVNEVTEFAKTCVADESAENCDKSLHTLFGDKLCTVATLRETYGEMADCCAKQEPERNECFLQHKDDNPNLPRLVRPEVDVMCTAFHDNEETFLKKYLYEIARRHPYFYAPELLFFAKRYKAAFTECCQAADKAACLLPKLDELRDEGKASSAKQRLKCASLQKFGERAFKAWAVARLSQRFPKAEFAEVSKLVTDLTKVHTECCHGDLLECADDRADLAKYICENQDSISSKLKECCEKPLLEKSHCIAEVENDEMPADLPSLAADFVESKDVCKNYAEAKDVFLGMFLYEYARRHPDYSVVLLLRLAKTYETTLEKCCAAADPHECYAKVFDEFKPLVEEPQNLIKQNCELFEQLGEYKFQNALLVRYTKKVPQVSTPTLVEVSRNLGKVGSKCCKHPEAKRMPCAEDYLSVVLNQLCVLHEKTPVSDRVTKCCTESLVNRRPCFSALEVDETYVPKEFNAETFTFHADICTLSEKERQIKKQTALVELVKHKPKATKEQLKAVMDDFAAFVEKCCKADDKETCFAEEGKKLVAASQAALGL
Source text: (§1) In the following examples, Biacore and Animal Study data were obtained with regard to some of the compounds of the present invention, namely NCP 014, 023, 023a.

Rat Albumin = Rat Albumin (Rattus norvegicus, UniProt P02770); assay: BIACORE binding to Rat Albumin; conditions: Protein: Rat Albumin; for Kd: read-out: KD1; for Binding Sites: number of binding sites
Sequence of Rat Albumin (P02770 25-608): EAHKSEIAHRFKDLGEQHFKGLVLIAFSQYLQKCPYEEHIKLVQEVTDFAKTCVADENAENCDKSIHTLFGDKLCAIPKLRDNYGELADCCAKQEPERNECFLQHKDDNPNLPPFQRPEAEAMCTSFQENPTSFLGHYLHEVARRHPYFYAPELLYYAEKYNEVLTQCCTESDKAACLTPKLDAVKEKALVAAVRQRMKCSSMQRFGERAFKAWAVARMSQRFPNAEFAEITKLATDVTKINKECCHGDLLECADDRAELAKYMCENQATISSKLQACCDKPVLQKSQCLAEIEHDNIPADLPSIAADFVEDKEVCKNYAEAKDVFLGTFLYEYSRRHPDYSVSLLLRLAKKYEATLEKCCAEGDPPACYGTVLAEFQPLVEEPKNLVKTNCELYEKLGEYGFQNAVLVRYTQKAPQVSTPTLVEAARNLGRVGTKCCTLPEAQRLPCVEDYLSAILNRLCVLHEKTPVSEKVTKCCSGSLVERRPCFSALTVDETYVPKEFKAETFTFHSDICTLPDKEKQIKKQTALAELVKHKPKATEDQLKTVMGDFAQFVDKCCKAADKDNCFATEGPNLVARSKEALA
Source text: as §1

human serum albumin = human serum albumin (Homo sapiens, UniProt P02768); assay: Crystallographic determination of albumin binding site; conditions: serum albumin binding region observed
Sequence of human serum albumin (P02768 25-609): as the sequence (P02768 25-609) above

HSA Fragment [1] = molecular target: T1, HSA Fragment (Homo sapiens, UniProt P02768, form not given); assay: BIACORE binding to HSA Fragment; conditions: human, HSA fragment, Protein: HSA Fragment; read-out: KD2
T1 construct: HSA Fragment
T1 sequence (P02768 whole entry, the tested form may be a part): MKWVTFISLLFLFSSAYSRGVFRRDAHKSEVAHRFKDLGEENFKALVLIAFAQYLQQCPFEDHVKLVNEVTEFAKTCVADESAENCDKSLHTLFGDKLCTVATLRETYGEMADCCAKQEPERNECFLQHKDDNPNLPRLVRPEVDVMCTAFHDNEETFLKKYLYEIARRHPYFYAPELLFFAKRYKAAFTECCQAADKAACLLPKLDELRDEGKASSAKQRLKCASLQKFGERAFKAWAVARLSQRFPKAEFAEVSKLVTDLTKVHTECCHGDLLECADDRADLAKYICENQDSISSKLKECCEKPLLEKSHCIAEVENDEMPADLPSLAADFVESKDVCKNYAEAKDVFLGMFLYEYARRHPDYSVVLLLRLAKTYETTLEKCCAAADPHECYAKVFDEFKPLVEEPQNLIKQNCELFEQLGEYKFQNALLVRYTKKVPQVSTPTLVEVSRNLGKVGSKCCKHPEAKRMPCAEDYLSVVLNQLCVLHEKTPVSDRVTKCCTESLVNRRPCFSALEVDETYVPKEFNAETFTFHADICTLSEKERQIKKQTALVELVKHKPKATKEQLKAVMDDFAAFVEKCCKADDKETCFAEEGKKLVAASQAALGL
Source text: as §1

HSA Fragment [2] = molecular target: T2, HSA Fragment (Homo sapiens, UniProt P02768); assay: BIACORE binding to HSA Fragment; conditions: Protein: HSA Fragment; number of binding sites
T2 construct: HSA Fragment
T2 sequence (P02768 whole entry, the tested form may be a part): as above
Source text: as §1

CC(=O)CC(Cc1ccccc1)c1c(O)c2ccccc2oc1=O (stereo not shown) [NCP 023] was tested, and the “Binding Sites” value (HSA) was 2 and 1, the Kd (HSA; read-out: KD2) was 112 µM and 160 µM and the Kd (Rat Albumin) was 85 µM. The “albumin binding site (location)” value (human serum albumin) was “bind at the IB site of serum albumin unique from the IB endogenous long-chain fatty acid site” and the Kd (HSA Fragment [1]) was 220 µM.
For CC(=O)CC(Cc1ccc(Cl)cc1)c1c(O)c2ccccc2oc1=O (stereo not shown) [NCP 023a], the “Binding Sites” value (HSA) was 1 and 2, the Kd (HSA; read-out: KD2) was 40 µM and the “Binding Sites” value (Rat Albumin) was 2. For the same molecule, the Kd (Rat Albumin) was 11.8 µM, the “albumin binding site (location)” value (human serum albumin) was “bind at the IB site of serum albumin unique from the IB endogenous long-chain fatty acid site” and the Kd (HSA Fragment [1]) was 50 µM.
CCCCCCCCC(CC(C)=O)c1c(O)c2ccccc2oc1=O (stereo not shown) [NCP 014] was tested, and the “Binding Sites” value (HSA) was 2 and 1, the Kd (HSA; read-out: KD1) was 0.7 µM and 0.8 µM and 4.6 µM and 6.5 µM and the Kd (HSA; human, HSA (human serum albumin), read-out: KD2) was 130 µM. The “Binding Sites” value (Rat Albumin) was 2, the Kd (Rat Albumin) was 4.6 µM and the “albumin binding site (location)” value (human serum albumin) was “bind at the IB binding site, and in addition in the IIA binding site, but at a location different than the major site wherein sodium warfarin binds to albumin”. For the same molecule, the Kd (HSA Fragment [1]) was 97 µM and the “Binding Sites” value (HSA Fragment [2]) was 2 and 1.
